Our source for the IC50 values is patent US12398120B2, “Substituted hydantoinamides as ADAMTS7 antagonists” (BAYER AKTIENGESELLSCHAFT, priority 2019, dated 2025).

ADAMTS4, sequence (O75173 213-685): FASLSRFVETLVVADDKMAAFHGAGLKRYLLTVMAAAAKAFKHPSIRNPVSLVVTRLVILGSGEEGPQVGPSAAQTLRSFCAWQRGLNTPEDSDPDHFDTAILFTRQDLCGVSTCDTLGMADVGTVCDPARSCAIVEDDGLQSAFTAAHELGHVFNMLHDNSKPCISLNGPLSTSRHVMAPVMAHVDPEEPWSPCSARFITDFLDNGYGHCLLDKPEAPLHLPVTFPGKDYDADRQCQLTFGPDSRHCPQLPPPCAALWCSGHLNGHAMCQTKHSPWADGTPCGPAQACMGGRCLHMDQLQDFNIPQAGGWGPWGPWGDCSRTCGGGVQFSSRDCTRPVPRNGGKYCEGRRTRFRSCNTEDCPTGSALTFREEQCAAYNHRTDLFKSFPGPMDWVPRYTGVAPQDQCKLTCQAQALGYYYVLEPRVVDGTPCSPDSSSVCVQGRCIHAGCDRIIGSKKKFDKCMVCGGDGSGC

The test has as its target ADAMTS4 (Homo sapiens (Human), UniProt O75173). Description: Selectivity assay for ADAMTS-7 modulators: ADAMTS4 (FRET substrate). It is filed as biochemical. The note with it: ADAMTS4 (R&D 4307-AD) 50 nM, substrate Dabcyl-EEVKAKVQPY-Glu(Edans)-NH2 1 μM, 120 min, 32° C. The gist of the method: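 Human ADAMTS4 with compound in DMSO, or DMSO control; reaction started by adding FRET substrate in reaction buffer. Fluorescence increase measured at substrate-specific wavelengths. IC50 derived from % inhibition of enzyme activity versus compound concentration.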
A word on the IC50: it is the concentration needed to halve the response being measured. The low end stands for greater potency, the high end for weaker potency. `Cc1scnc1C1(CNC(=O)c2ccc(F)cc2-c2ccc(Cl)cc2)NC(=O)NC1=O` (single isomer, unassigned; ent-4) [Example 170, Ent-4′-Chloro-5-Fluoro-N-{[4-(5-Methyl-1,3-Thiazol-4-Yl)-2,5-Dioxoimidazolidin-4-Yl]Methyl}[Biphenyl]-2-Carboxamide] had an IC50 of 4.9 µM.
Compound `Cc1scnc1C1(CNC(=O)c2cc(F)ccc2-c2ccc(Cl)cc2)NC(=O)NC1=O` (single isomer, unassigned; ent-4) [Example 174, Ent-4′-Chloro-4-Fluoro-N-{[4-(5-Methyl-1,3-Thiazol-4-Yl)-2,5-Dioxoimidazolidin-4-Yl]Methyl}[Biphenyl]-2-Carboxamide] had an IC50 of 2.6 µM.
For `Cc1scnc1C1(CNC(=O)c2cc(Cl)ccc2-c2ccc(C(F)(F)F)cc2)NC(=O)NC1=O` (single isomer, unassigned; ent-4) [Example 18, Ent-4-Chloro-N-{[4-(5-Methyl-1,3-Thiazol-4-Yl)-2,5-Dioxoimidazolidin-4-Yl]Methyl}-4′-(Trifluoromethyl)[Biphenyl]-2-Carboxamide], inhibition was half-maximal at 41 µM (IC50).
Take `O=C1NC(=O)[C@](CNC(=O)c2ccccc2-c2ccc(Cl)c(Cl)c2)(C2CC2)N1` [Example 227, 3′,4′-Dichloro-N-{[(4R)-4-Cyclopropyl-2,5-Dioxoimidazolidin-4-Yl]Methyl}[1,1′-Biphenyl]-2-Carboxamide]: half-maximal inhibition (IC50) was put at 41 µM.
For the compound `Cc1c(C2(CNC(=O)c3ccc(Cl)cc3-c3ccc(C(F)(F)F)cc3)NC(=O)NC2=O)cnn1C` (single isomer, unassigned; ent-5) [Example 79, Ent-5-Chloro-N-{[4-(1,5-Dimethyl-1H-Pyrazol-4-Yl)-2,5-Dioxoimidazolidin-4-Yl]Methyl}-4′-(Trifluoromethyl)[Biphenyl]-2-Carboxamide], the IC50 was 2.1 µM.
The figure for `O=C1NC(=O)C(CNC(=O)c2ccccc2-c2ccc(C(F)(F)F)cc2)(C2CCC2)N1` (stereo not drawn) [Example 237, Ent-N-[(4-Cyclobutyl-2,5-Dioxoimidazolidin-4-Yl)Methyl]-4′-(Trifluoromethyl)[Biphenyl]-2-Carboxamide] is above 50 µM.
In the case of `Cc1ccc(C(=O)NCC2(c3nccn3C)NC(=O)NC2=O)c(-c2ccc(C(F)(F)F)cc2)c1C` (single isomer, unassigned; ent-5) [Example 287, Ent-5,6-Dimethyl-N-{[4-(1-Methyl-1H-Imidazol-2-Yl)-2,5-Dioxoimidazolidin-4-Yl]Methyl}-4′-(Trifluoromethyl)[Biphenyl]-2-Carboxamide], the half-maximal inhibitory concentration (IC50) came to 0.16 µM.
The figure for `O=C1NC(=O)C(CNC(=O)c2ccccc2-c2ccc(C(F)(F)F)nc2)(c2ccccc2)N1` (racemic) [Example 50, Rac-N-[(2,5-Dioxo-4-Phenylimidazolidin-4-Yl)Methyl]-2-[6-(Trifluoromethyl)Pyridin-3-Yl]Benzamide] is 43 µM; for `COc1ccc(C(=O)NC[C@@]2(C3CC3)NC(=O)NC2=O)c(-c2ccc(C(F)(F)F)cc2)c1` [Example 107, N-{[(4R)-4-Cyclopropyl-2,5-Dioxoimidazolidin-4-Yl]Methyl}-5-Methoxy-4′-(Trifluoromethyl)[Biphenyl]-2-Carboxamide] it is 6.2 µM.
`CCn1nccc1C1(CNC(=O)c2ccccc2-c2ccc(C(F)(F)F)cc2)NC(=O)NC1=O` (stereo not drawn) [Example 80, Ent-N-{[4-(1-Ethyl-1H-Pyrazol-5-Yl)-2,5-Dioxoimidazolidin-4-Yl]Methyl}-4′-(Trifluoromethyl)[Biphenyl]-2-Carboxamide] gave a half-maximal inhibitory concentration (IC50) of 5.73 µM.
Compound `Cc1ncsc1C1(CNC(=O)c2ccccc2-c2ccc(C(F)(F)F)cc2)NC(=O)NC1=O` (stereo not drawn) [Example 27, Ent-N-{[4-(4-Methyl-1,3-Thiazol-5-Yl)-2,5-Dioxoimidazolidin-4-Yl]Methyl}-4′-(Trifluoromethyl)[Biphenyl]-2-Carboxamide] came in with an IC50 of 9.1 µM.
For `O=C1NC(=O)[C@](CNC(=O)c2ccc(C(F)(F)F)cc2-c2ccc(C(F)(F)F)cc2)(C2CC2)N1` [Example 117, N-{[(4R)-4-Cyclopropyl-2,5-Dioxoimidazolidin-4-Yl]Methyl}-4′,5-Bis(Trifluoromethyl)[Biphenyl]-2-Carboxamide], inhibition was half-maximal at 61 µM (IC50).
Under `Cn1ccc(C2(CNC(=O)c3ccc(F)c(F)c3-c3ccc(C(F)(F)F)cc3)NC(=O)NC2=O)n1` (racemic) [Example 307, Rac-5,6-Difluoro-N-{[4-(1-Methyl-1H-Pyrazol-3-Yl)-2,5-Dioxoimidazolidin-4-Yl]Methyl}-4′-(Trifluoromethyl)[Biphenyl]-2-Carboxamide] stands 23 µM; under `Cn1nccc1C1(CNC(=O)c2ccc(Cl)cc2-c2ccc(C(F)(F)F)cc2)NC(=O)NC1=O` (single isomer, unassigned; ent-5) [Example 188, Ent-5-Chloro-N-{[4-(1-Methyl-1H-Pyrazol-5-Yl)-2,5-Dioxoimidazolidin-4-Yl]Methyl}-4′-(Trifluoromethyl)[Biphenyl]-2-Carboxamide], 2.73 µM; under `Cc1cc(C2(CNC(=O)c3ccc(F)c(F)c3-c3ccc(C(F)(F)F)cc3)NC(=O)NC2=O)nn1C` (racemic) [Example 305, Rac-N-{[4-(1,5-Dimethyl-1H-Pyrazol-3-Yl)-2,5-Dioxoimidazolidin-4-Yl]Methyl}-5,6-Difluoro-4′-(Trifluoromethyl)[Biphenyl]-2-Carboxamide], 28 µM.
`Cc1ccc(C(=O)NC[C@@]2(C3CC3)NC(=O)NC2=O)c(-c2ccc(C3CC3(F)F)cc2)c1` (single isomer, unassigned) [Example 138] had an IC50 of 4.9 µM.
Under `Cc1ccc(-c2ccc(F)cc2C(=O)NCC2(c3nccn3C)NC(=O)NC2=O)cc1` (single isomer, unassigned; ent-4) [Example 152, Ent-4-Fluoro-4′-Methyl-N-{[4-(1-Methyl-1H-Imidazol-2-Yl)-2,5-Dioxoimidazolidin-4-Yl]Methyl}[Biphenyl]-2-Carboxamide] stands 0.705 µM; under `Cc1ccc(-c2ccc(F)cc2C(=O)NC[C@@]2(C3CC3)NC(=O)NC2=O)cc1` [Example 219, N-{[(4R)-4-Cyclopropyl-2,5-Dioxoimidazolidin-4-Yl]Methyl}-4-Fluoro-4-Methyl[Biphenyl]-2-Carboxamide], 2.8 µM.
Regarding `Cn1nccc1C1(CNC(=O)c2ccccc2-c2ccc(Cl)c(Cl)c2)NC(=O)NC1=O` (single isomer, unassigned; ent-3) [Example 311, Ent-3′,4′-Dichloro-N-{[4-(1-Methyl-1H-Pyrazol-5-Yl)-2,5-Dioxoimidazolidin-4-Yl]Methyl}[Biphenyl]-2-Carboxamide], the midpoint of inhibition, the IC50, lay at 11 µM.
Under `Cc1cnn(C)c1C1(CNC(=O)c2ccccc2-c2ccc(C(F)(F)F)nc2)NC(=O)NC1=O` (racemic) [Example 52, Rac-N-{[4-(1,4-Dimethyl-1H-Pyrazol-5-Yl)-2,5-Dioxoimidazolidin-4-Yl]Methyl}-2-[6-(Trifluoromethyl)Pyridin-3-Yl]Benzamide] stands 19 µM.
Compound `O=C1NC(=O)[C@](CNC(=O)c2ccccc2-c2ccc(C(F)(F)F)c(Cl)c2)(C2CC2)N1` [Example 226, 3′-Chloro-N-{[(4R)-4-Cyclopropyl-2,5-Dioxoimidazolidin-4-Yl]Methyl}-4′-(Trifluoromethyl)[1,1′-Biphenyl]-2-Carboxamide] yielded a half-maximal inhibitory concentration (IC50) above 50 µM.
As for `Cn1ccnc1C1(CNC(=O)c2cc(F)c(F)cc2-c2ccc(C(F)(F)F)cc2)NC(=O)NC1=O` (single isomer, unassigned; ent-4) [Example 154, Ent-4,5-Difluoro-N-{[4-(1-Methyl-1H-Imidazol-2-Yl)-2,5-Dioxoimidazolidin-4-Yl]Methyl}-4′-(Trifluoromethyl)[Biphenyl]-2-Carboxamide], the 50% inhibitory concentration (IC50) was found to be 3.95 µM.
Under `Cn1nccc1C1(CNC(=O)c2cccc(F)c2-c2ccc(C(F)(F)F)cc2)NC(=O)NC1=O` (single isomer, unassigned; ent-6) [Example 195, Ent-6-Fluoro-N-{[4-(1-Methyl-1H-Pyrazol-5-Yl)-2,5-Dioxoimidazolidin-4-Yl]Methyl}-4′-(Trifluoromethyl)[Biphenyl]-2-Carboxamide] stands 4.63 µM.
Under `Cn1cncc1C1(CNC(=O)c2ccccc2-c2ccc(C(F)(F)F)cc2)NC(=O)NC1=O` (stereo not drawn) [Example 297, Ent-N-{[4-(1-Methyl-1H-Imidazol-5-Yl)-2,5-Dioxoimidazolidin-4-Yl]Methyl}-4′-(Trifluoromethyl)[Biphenyl]-2-Carboxamide] stands 4.1 µM; under `O=C1NC(=O)C(CNC(=O)c2ccccc2-c2ccc(Cl)cc2)(c2ncccc2C(F)(F)F)N1` (racemic) [Example 242, Rac-4′-Chloro-N-({2,5-Dioxo-4-[3-(Trifluoromethyl)Pyridin-2-Yl]Imidazolidin-4-Yl}Methyl)[Biphenyl]-2-Carboxamide], 29 µM; under `CC1CCC1C1(CNC(=O)c2ccccc2-c2ccc(C(F)(F)F)cc2)NC(=O)NC1=O` (centres unmarked) [Example 13, Diamix-N-{[4-(2-Methylcyclobutyl)-2,5-Dioxoimidazolidin-4-Yl]Methyl}-4′-(Trifluoromethyl)[Biphenyl]-2-Carboxamide], above 50 µM.
In turn, `Cc1ccc(-c2ccccc2C(=O)NCC2(c3ccccn3)NC(=O)NC2=O)cc1` (racemic) [Example 164, Rac-N-{[2,5-Dioxo-4-(Pyridin-2-Yl)Imidazolidin-4-Yl]Methyl}-4′-Methyl[Biphenyl]-2-Carboxamide] had a concentration for half-maximal inhibition (IC50) of 14 µM.
`O=C1NC(=O)[C@](CNC(=O)c2ccc(F)cc2-c2ccc(C3CC3(F)F)cc2)(C2CC2)N1` (stereo partly drawn) [Example 142, N-{[(4R)-4-Cyclopropyl-2,5-Dioxoimidazolidin-4-Yl]Methyl}-4′-(2,2-Difluorocyclopropyl)-5-Fluoro[1,1′-Biphenyl]-2-Carboxamide] yielded an IC50 of 18 µM.
`Cc1scnc1C1(CNC(=O)c2ccccc2-c2ccc(C(F)(F)F)cc2)NC(=O)NC1=O` (single isomer, unassigned) [Example 3, Ent-N-{[4-(5-Methyl-1,3-Thiazol-4-Yl)-2,5-Dioxoimidazolidin-4-Yl]Methyl}-4′-(Trifluoromethyl)[Biphenyl]-2-Carboxamide]: half-maximal inhibition (IC50) was put at 4.8 µM.
